From paper PMC7076710, “Synthesis, Identification, and Structure–Activity Relationship Analysis of GATA4 and NKX2-5 Protein–Protein Interaction Modulators” (Journal of Medicinal Chemistry, 2019)

Molecular target: T1, GATA4–NKX2-5 transcriptional synergy (Mus musculus, UniProt P42582+Q08369)
T1 construct: expressed in transfected cells; host or cells: COS-1
Test: GATA4–NKX2-5 transcriptional synergy luciferase reporter assay (3xNKE reporter, COS-1 cells)
Assay type: cell-based

[1] = COS-1, compound 3 µM, luciferase reporter activity relative to control
[2] = COS-1, compound 10 µM, luciferase reporter activity relative to control
[3] = COS-1, compound at 3 µM, luciferase reporter activity, % of control
[4] = COS-1, compound at 10 µM, luciferase reporter activity, % of control
[5] = COS-1, compound 3 µM, luciferase reporter activity, spread in separate STDEV column
[6] = COS-1, compound 10 µM, luciferase reporter activity, spread in separate STDEV column
[7] = 3 µM compound, GATA4–NKX2-5 transcriptional synergy reporter, COS-1 cells
[8] = 10 µM compound, GATA4–NKX2-5 transcriptional synergy reporter, COS-1 cells
[9] = COS-1, GATA4-NKX2-5 transcriptional synergy luciferase reporter assay, compound at 3 µM
[10] = COS-1, GATA4-NKX2-5 transcriptional synergy luciferase reporter assay, compound at 10 µM

T1 sequence (Q08369 whole entry): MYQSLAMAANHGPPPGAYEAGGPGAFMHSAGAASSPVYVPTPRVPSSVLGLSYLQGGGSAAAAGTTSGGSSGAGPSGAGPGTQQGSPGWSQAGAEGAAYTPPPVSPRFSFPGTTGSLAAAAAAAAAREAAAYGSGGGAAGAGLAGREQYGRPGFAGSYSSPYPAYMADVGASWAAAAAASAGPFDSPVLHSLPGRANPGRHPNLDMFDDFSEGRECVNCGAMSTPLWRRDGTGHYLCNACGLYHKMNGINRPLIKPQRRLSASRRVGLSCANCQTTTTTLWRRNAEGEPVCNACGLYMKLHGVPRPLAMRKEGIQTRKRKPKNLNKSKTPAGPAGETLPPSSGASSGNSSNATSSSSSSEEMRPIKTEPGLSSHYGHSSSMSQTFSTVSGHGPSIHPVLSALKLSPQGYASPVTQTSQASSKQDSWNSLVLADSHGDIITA
T1 sequence (P42582 whole entry): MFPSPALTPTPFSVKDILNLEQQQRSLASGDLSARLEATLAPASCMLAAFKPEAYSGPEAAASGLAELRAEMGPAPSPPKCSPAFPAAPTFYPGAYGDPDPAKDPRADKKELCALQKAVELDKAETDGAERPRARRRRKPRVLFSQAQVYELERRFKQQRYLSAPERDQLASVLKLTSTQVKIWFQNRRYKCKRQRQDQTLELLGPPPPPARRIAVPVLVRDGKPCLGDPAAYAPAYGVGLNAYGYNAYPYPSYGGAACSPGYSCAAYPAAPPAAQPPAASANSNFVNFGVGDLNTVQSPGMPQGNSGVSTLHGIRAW

SMILES: CCN(CC)c1ccc(C(=O)Cn2nnnc2-c2ccccc2)cc1 [SI69]
- activity at 3 µM [1]: 96.6%
- activity at 10 µM [2]: 87.9%

SMILES: COc1ccc(NC(=O)c2cnoc2-c2ccccc2)cc1 [SI70]
- activity at 3 µM [3]: 109%
- activity at 10 µM [4]: 100%

SMILES: Cc1noc(-c2ccccc2)c1C(=O)Nc1ccc(CN(C)C)cc1 [SI71]
- activity at 3 µM [1]: 109%
- activity at 10 µM [2]: 105%

SMILES: Cc1cc(NC(=O)c2c(C)noc2-c2ccccc2)ccc1C(C)C [SI72]
- activity at 3 µM [1]: 102%
- activity at 10 µM [2]: 95%

SMILES: CCN(CC)c1ccc(NC(=O)c2c(C)noc2-c2noc(C)c2C)cc1 [SI73]
- activity at 3 µM [5]: 86%
- activity at 10 µM [6]: 97.9%

SMILES: CCN(CC)c1ccc(NC(=O)c2c(C)noc2-c2cc(CCOc3ccccn3)on2)cc1 [SI74]
- activity at 3 µM [5]: 97.4%
- activity at 10 µM [6]: 104%

SMILES: CCc1cc(-c2onc(C)c2C(=O)Nc2ccc(N(CC)CC)cc2)no1 [SI75]
- activity at 3 µM [5]: 97.5%
- activity at 10 µM [6]: 88.8%

SMILES: CCN(CC)c1ccc(NC(=O)c2c(C)noc2-c2cc(-c3ccco3)on2)cc1 [SI76]
- activity at 3 µM [5]: 108%
- activity at 10 µM [6]: 100%

SMILES: Cc1cc(-c2onc(C)c2C(=O)N(C)c2ccc3oc(-c4ccccc4)cc(=O)c3c2)no1 [SI77]
- activity at 3 µM [5]: 122%
- activity at 10 µM [6]: 121%

SMILES: CCN(CC)c1ccc(NCc2c[nH]nc2-c2ccc(F)cc2)cc1 [SI81]
- activity at 3 µM [7]: 98.1%
- activity at 10 µM [8]: 82.3%

SMILES: Fc1ccc(-c2n[nH]cc2C=Nc2ccc(N3CCOCC3)cc2)cc1 [SI82]
- activity at 3 µM [3]: 103%
- activity at 10 µM [4]: 87.6%

SMILES: CCN(CC)c1ccc(NCc2c[nH]nc2-c2cccs2)cc1 [SI83]
- activity at 3 µM [7]: 99%
- activity at 10 µM [8]: 103%

SMILES: CCN(CC)c1ccc(CNCc2c[nH]nc2-c2ccccc2)cc1 [SI84]
- activity at 3 µM [1]: 91.3%
- activity at 10 µM [2]: 84.8%

SMILES: CCN(CC)c1ccc(NCc2c[nH]nc2C2CCCCC2)cc1 [SI85]
- activity at 3 µM [7]: 88.4%
- activity at 10 µM [8]: 82.1%

SMILES: CCN(CC)c1ccc(NC(=O)c2c[nH]nc2C2CCCCC2)cc1 [SI86]
- activity at 3 µM [5]: 94.8%
- activity at 10 µM [6]: 70.7%

SMILES: Cc1cc(NC(=O)c2cnn(C)c2-c2ccccc2)ccc1C(C)C [SI87]
- activity at 3 µM [7]: 88.1%
- activity at 10 µM [8]: 68.4%

SMILES: O=C(Nc1ccc2oc(-c3ccccc3)cc(=O)c2c1)c1c[nH]nc1-c1ccccc1 [SI90]
- activity at 3 µM [7]: 102%
- activity at 10 µM [8]: 71.2%

SMILES: COc1ccc(-c2cc(N=Cc3ccc(N(C)C)cc3)n[nH]2)cc1 [SI91]
- activity at 3 µM [3]: 94.2%
- activity at 10 µM [4]: 89.2%

SMILES: CN(C)c1ccc(C=Nc2cc(-c3ccccc3)nn2-c2ccccc2)cc1 [SI93]
- activity at 3 µM [3]: 93.3%
- activity at 10 µM [4]: 107%

SMILES: COc1ccc(-c2n[nH]c(N)c2/N=N/c2ccc(C(=O)O)cc2)cc1 [SI95]
- activity at 3 µM [1]: 91.9%
- activity at 10 µM [2]: 89.3%

SMILES: CCCCOC(=O)c1ccc(N=Nc2c(-c3ccc(OC)cc3)n[nH]c2N)cc1 [SI96]
- activity at 3 µM [1]: 97.6%
- activity at 10 µM [2]: 78.6%

SMILES: Nc1c(/N=N/c2ccc([N+](=O)[O-])cc2)c(-c2ccccc2)nn1-c1ccccc1 [SI97]
- activity at 3 µM (COS-1, 3 µM, luciferase reporter activity, % of control): 73.3%
- activity at 10 µM (COS-1, 10 µM, luciferase reporter activity, % of control): 61.2%

SMILES: COc1ccc(NC(=O)n2nc(N)cc2-c2ccc(OC)cc2)cc1 [SI99]
- activity at 3 µM [3]: 79.8%
- activity at 10 µM [4]: 108%

SMILES: O=C(Nc1ccc2oc(-c3ccccc3)cc(=O)c2c1)c1cnsc1 [SI100]
- activity at 3 µM [1]: 112%
- activity at 10 µM [2]: 117%

SMILES: Cc1cc(C(=O)Nc2ccc3oc(-c4ccccc4)cc(=O)c3c2)c(-c2ccccc2)o1 [SI101]
- activity at 3 µM [7]: 90.8%
- activity at 10 µM [8]: 78%

SMILES: O=C(Nc1ccc2oc(-c3ccccc3)cc(=O)c2c1)c1ncoc1-c1ccccc1 [SI102]
- activity at 3 µM [7]: 103%
- activity at 10 µM [8]: 91.3%

SMILES: CSc1nsc(SC)c1C(=O)Nc1ccc2oc(-c3ccccc3)cc(=O)c2c1 [SI103]
- activity at 3 µM [7]: 96.2%
- activity at 10 µM [8]: 110%

SMILES: O=C(Nc1ccc2oc(-c3ccccc3)cc(=O)c2c1)c1snnc1-c1ccccc1 [SI104]
- activity at 3 µM [7]: 103%
- activity at 10 µM [8]: 94.9%

SMILES: Cc1noc(-c2ccccc2)c1C(=O)Nc1ccc2oc(-c3ccccc3)cc(=O)c2c1 [SI105]
- activity at 3 µM [1]: 70.3%
- activity at 10 µM [2]: 44.1%

SMILES: CCN(CC)c1ccc(C(=O)Nc2c(C(N)=O)oc3ccccc23)cc1 [SI106]
- activity at 3 µM [3]: 94.1%
- activity at 10 µM [4]: 95.8%

SMILES: CC(=O)c1ccc(OCc2cc(-c3ccc(CC(C)C)cc3)on2)cc1 [SI107]
- activity at 3 µM [1]: 113%
- activity at 10 µM [2]: 104%

SMILES: Cc1onc(-c2ccccc2)c1NCc1ccc(N(C)C)cc1 [SI109]
- activity at 3 µM [3]: 87.1%
- activity at 10 µM [4]: 89.9%

SMILES: COC(=O)c1ccc(N(C)C(=O)c2c(-c3ccccc3)noc2C)cc1 [SI110]
- activity at 3 µM [7]: 100%
- activity at 10 µM [8]: 117%

SMILES: COC(=O)c1c(-c2ccccc2)nnn1CCc1ccccc1 [SI111]
- activity at 3 µM [1]: 103%
- activity at 10 µM [2]: 106%

SMILES: COc1ccc(-c2cc(N)nn2C(=O)c2ccc(C(C)(C)C)cc2)cc1 [SI112]
- activity at 3 µM [3]: 104%
- activity at 10 µM [4]: 71.9%

SMILES: N#Cc1ccc(NC(=O)c2cc(-c3ccco3)on2)cc1 [SI113]
- activity at 3 µM [5]: 101%
- activity at 10 µM [6]: 99.2%

SMILES: CCN(CC)C(=O)c1cc(-c2cccs2)on1 [SI114]
- activity at 3 µM [5]: 124%
- activity at 10 µM [6]: 115%

SMILES: COc1ccc(NC(=O)c2c(-c3ccc(Br)s3)noc2C)cc1Cl [SI115]
- activity at 3 µM [5]: 92%
- activity at 10 µM [6]: 91.9%

SMILES: Cc1onc(-c2ccc(Br)s2)c1C(=O)Nc1ccc(C(C)C)cc1 [SI116]
- activity at 3 µM [5]: 99.4%
- activity at 10 µM [6]: 97.2%

SMILES: Cc1onc(-c2ccc(Br)s2)c1C(=O)NC1CC1 [SI117]
- activity at 3 µM [5]: 90%
- activity at 10 µM [6]: 105%

SMILES: N#Cc1ccc(NC(=O)c2cc(-c3ccncc3)[nH]n2)cc1 [SI118]
- activity at 3 µM [5]: 96.6%
- activity at 10 µM [6]: 102%

SMILES: CC(C)c1ccc(NC(=O)c2n[nH]c3c2COc2ccccc2-3)cc1 [SI119]
- activity at 3 µM [9]: 91.2%
- activity at 10 µM [10]: 103%

SMILES: CCN(CC)c1ccc(NC(=O)c2cc(-c3ccco3)[nH]n2)cc1 [SI120]
- activity at 3 µM [9]: 91.7%
- activity at 10 µM [10]: 90.7%

SMILES: O=C1COc2ccc(NC(=O)c3cc(-c4ccccc4)[nH]n3)cc2N1 [SI121]
- activity at 3 µM [9]: 101%
- activity at 10 µM [10]: 90.6%

SMILES: O=C(Nc1ccc2c(c1)OC(F)(F)O2)c1cc(-c2ccco2)on1 [SI122]
- activity at 3 µM [9]: 91.8%
- activity at 10 µM [10]: 102%

SMILES: O=C(Nc1ccc(F)c(Cl)c1)c1cnoc1-c1ccco1 [SI124]
- activity at 3 µM [9]: 108%
- activity at 10 µM [10]: 102%

SMILES: CCC1(C)Oc2ccc(NC(=O)c3cnoc3-c3ccc(C)o3)cc2O1 (centres unmarked) [SI125]
- activity at 3 µM [9]: 106%
- activity at 10 µM [10]: 91.7%

SMILES: CCOC(=O)c1cc(NC(=O)c2cc(-c3ccccc3)no2)c[nH]1 [SI126]
- activity at 3 µM [9]: 100%
- activity at 10 µM [10]: 101%

SMILES: O=C(Nc1ccc(N2CCCS2(=O)=O)cc1)c1c[nH]cc1-c1ccc(Cl)s1 [SI127]
- activity at 3 µM [9]: 96.7%
- activity at 10 µM [10]: 82.9%

SMILES: O=C(Nc1cc(-c2cccs2)n[nH]1)c1ccccc1 [SI128]
- activity at 3 µM [9]: 110%
- activity at 10 µM [10]: 69.3%

SMILES: CN(C)c1c(F)cc(NC(=O)c2cc(-c3ccco3)on2)cc1F [SI129]
- activity at 3 µM [9]: 94.3%
- activity at 10 µM [10]: 115%

SMILES: O=C(Nc1cccc(N2CCCC2=O)c1)c1cc(-c2ccccc2)[nH]n1 [SI130]
- activity at 3 µM [9]: 102%
- activity at 10 µM [10]: 106%

SMILES: CCN(CC)c1ccc(NC(=O)c2c(-c3cccc(Br)c3)noc2C)c(C)c1 [SI131]
- activity at 3 µM [9]: 85.4%
- activity at 10 µM [10]: 88.3%

SMILES: CCN(CC)c1ccc(NC(=O)c2c(-c3ccccc3)noc2C)c(C)c1 [SI132]
- activity at 3 µM [9]: 85.4%
- activity at 10 µM [10]: 61.6%

SMILES: Cc1ccc(NC(=O)c2c(-c3cc(C)on3)noc2C)cc1 [SI133]
- activity at 3 µM [9]: 88.6%
- activity at 10 µM [10]: 86.3%

SMILES: Cc1cc(-c2noc(C)c2C(=O)Nc2ccc(Cl)cc2)no1 [SI134]
- activity at 3 µM [9]: 82.9%
- activity at 10 µM [10]: 87.7%

SMILES: Cc1cc(-c2noc(C)c2C(=O)Nc2ccc(C(F)(F)F)cc2)no1 [SI135]
- activity at 3 µM [9]: 98.8%
- activity at 10 µM [10]: 101%

SMILES: Cc1cc(-c2noc(C)c2C(=O)Nc2cccc(Cl)c2)no1 [SI136]
- activity at 3 µM [9]: 83%
- activity at 10 µM [10]: 82.5%
